Measured values as given in patent US9394346B2, “Method for producing an amino acid using a bacterium overexpressing an rhtC gene” (priority 1998, dated 2016).

Experiments:
Format in all cases: cell-based, E. coli
N99/pUC21 = test: MIC of amino acids and analogues on M9 agar, strain N99/pUC21; details: Escherichia coli; N99/pUC21 (vector control; same data with N99/pUK21); M9 agar (2%), about 10^4 viable cells, doubling increments
Description: (§1) Therefore, the effect of the pRhtB and pRhtC plasmids on susceptibility of the strain N99 which is a streptomycin-resistant (Str^R) mutant of the known strain W3350 (VKPM B-1557) to some amino acids and amino acid analogues was tested. Overnight broth cultures (10^9 cfu/ml) of the strains N99/pUC21, N99pUK21, N99/pRhtB and N99/pRhtC were diluted 1:100 in M9 minimal medium and grown for 5 h in the same medium. Then the log phase cultures thus obtained were diluted and about 10^4 viable cells were applied to well-dried test plates with M9 agar (2%) containing doubling increments of amino acids or analogues. Thus the minimum inhibitory concentrations (MIC) of these compounds were examined.

N99/pRhtB = test: MIC of amino acids and analogues on M9 agar, strain N99/pRhtB; details: Escherichia coli
Description: as §1

N99/pRhtC = test: MIC of amino acids and analogues on M9 agar, strain N99/pRhtC; details: Escherichia coli; N99/pRhtC (multicopy rhtC); M9 agar (2%), about 10^4 viable cells, doubling increments
Description: as §1

SMILES | MIC (N99/pUC21) | MIC (N99/pRhtB) | MIC (N99/pRhtC)
CCC(O)C(N)C(=O)O (stereo not drawn) [AHVA, α-amino-β-hydroxyvaleric-acid] | 100 µg/mL | 2000 µg/mL | 15000 µg/mL
CC(C)[C@H](N)C(=O)O [L-valine] | 0.5 µg/mL | 0.5 µg/mL | 2 µg/mL
NCCSC[C@H](N)C(=O)O [AEC, S-(2-aminoethyl)-L-cysteine] | 5 µg/mL | 20 µg/mL | 5 µg/mL
CN(C)CC(N)C(=O)O (racemic) [4-aza-DL-leucine] | 50 µg/mL | 100 µg/mL | 50 µg/mL
N[C@@H](Cc1c[nH]cn1)C(=O)O [L-histidine] | 5000 µg/mL | 5000 µg/mL | 40000 µg/mL
N[C@@H](CCO)C(=O)O [L-homoserine] | 1000 µg/mL | 20000 µg/mL | 1000 µg/mL
C[C@@H](O)[C@H](N)C(=O)O [L-threonine] | 30000 µg/mL | 40000 µg/mL | 80000 µg/mL
CO[C@H](C)[C@H](N)C(=O)O [O-methyl-L-threonine] | 20 µg/mL | 20 µg/mL | 20 µg/mL
